Measured values: ChEMBL document CHEMBL1201862, “PubChem BioAssay data set” (2004)
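Following 48 hours of exposure in 96-well plates, responses at five concentrations were used to interpolate endpoints linearly. GI50: concentration for 50% inhibition of growth.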 Calls of active or inactive are those of the source. Cut-off read from the data, not from the text of the source: active = GI50 up to about 1.1 µM and inactive = higher.

Legend:
Experiment in all cases: NCI-60 cell line screen, 48 h
OVCAR-8 = system: OVCAR-8
LOX IMVI = system: LOX IMVI
OVCAR-4 = system: OVCAR-4
NCI-H226 = system: NCI-H226
HT-29 = system: HT-29
M14 = system: M14
HOP-92 = system: HOP-92
RXF 393 = system: RXF 393
NCI-H522 = system: NCI-H522
A549 = system: A549
SN12C = system: SN12C
SK-OV-3 = system: SK-OV-3
TK-10 = system: TK-10
DMS-114 = system: DMS-114
SNB-78 = system: SNB-78
Malme-3M = system: Malme-3M
CAKI-1 = system: CAKI-1

Measured: GI50

CN1C(=O)CC2(C)c3cc(C=O)ccc3N(C)C12 (configuration not stated)
inactive: OVCAR-8 > 100 µM | LOX IMVI > 100 µM | OVCAR-4 > 100 µM | NCI-H226 > 100 µM | HT-29 > 100 µM | M14 > 100 µM | HOP-92 > 100 µM | RXF 393 > 100 µM | NCI-H522 > 100 µM | A549 > 100 µM | SN12C > 100 µM | SK-OV-3 > 100 µM | TK-10 > 100 µM | DMS-114 > 100 µM | SNB-78 > 100 µM | Malme-3M > 100 µM

CCCCc1c2c(nc3c1CCCC3O)/C(=C/c1ccccc1)CCC2 (configuration not stated)
inactive: OVCAR-8 32 µM | LOX IMVI 19.7 µM | OVCAR-4 63.7 µM | NCI-H226 26.1 µM | HT-29 22.1 µM | M14 23.1 µM | HOP-92 38.7 µM | RXF 393 39.9 µM | NCI-H522 21.7 µM | A549 49.5 µM | SN12C 23.2 µM | SK-OV-3 38.5 µM | TK-10 26.9 µM | DMS-114 22.9 µM | SNB-78 56 µM | Malme-3M 20.2 µM

COC(=O)C(=O)C(C(=O)C(=O)Nc1ccc(Cl)cc1C)c1nc2ccc(C(=O)c3ccccc3)cc2nc1O (configuration not stated)
inactive: OVCAR-8 > 100 µM | LOX IMVI > 100 µM | OVCAR-4 > 100 µM | NCI-H226 33.5 µM | HT-29 > 100 µM | CAKI-1 68.4 µM | M14 > 100 µM | HOP-92 49.8 µM | RXF 393 52.2 µM | NCI-H522 37 µM | A549 > 100 µM | SN12C > 100 µM | SK-OV-3 > 100 µM | TK-10 > 100 µM | DMS-114 36 µM | SNB-78 > 100 µM | Malme-3M > 100 µM

CC1(C)C2=CCCC(=O)[C@@]2(C)CC[C@@H]1O
inactive: OVCAR-8 > 100 µM | LOX IMVI > 100 µM | OVCAR-4 > 100 µM | NCI-H226 > 100 µM | HT-29 > 100 µM | CAKI-1 > 100 µM | M14 > 100 µM | HOP-92 > 100 µM | RXF 393 > 100 µM | NCI-H522 > 100 µM | A549 > 100 µM | SN12C > 100 µM | SK-OV-3 > 100 µM | TK-10 > 100 µM | DMS-114 > 100 µM | SNB-78 > 100 µM

CC(=O)OCC1OC(n2c(-c3ccc(C)cc3)cc(-c3ccccc3)c(C#N)c2=O)C(OC(C)=O)C(OC(C)=O)C1OC(C)=O (configuration not stated)
inactive: OVCAR-8 > 100 µM | LOX IMVI > 100 µM | OVCAR-4 > 100 µM | NCI-H226 > 100 µM | HT-29 > 100 µM | CAKI-1 > 100 µM | M14 > 100 µM | HOP-92 > 100 µM | NCI-H522 82.6 µM | A549 > 100 µM | SN12C > 100 µM | SK-OV-3 > 100 µM | TK-10 > 100 µM | DMS-114 > 100 µM | SNB-78 > 100 µM | Malme-3M > 100 µM

COC(=O)[C@]1(C)C(OC)=CC(=O)C2C1[C@H]1CCC[C@@H]21 (some centres not stated)
inactive: OVCAR-8 > 100 µM | LOX IMVI > 100 µM | NCI-H226 > 100 µM | HT-29 > 100 µM | CAKI-1 > 100 µM | M14 > 100 µM | HOP-92 > 100 µM | RXF 393 > 100 µM | NCI-H522 > 100 µM | A549 > 100 µM | SN12C > 100 µM | SK-OV-3 > 100 µM | TK-10 > 100 µM | DMS-114 > 100 µM | SNB-78 > 100 µM | Malme-3M > 100 µM

CCN(CC)CCNc1ccc2ncn3c4ccccc4c(=O)c1c23
inactive: OVCAR-8 2.77 µM | LOX IMVI 1.64 µM | OVCAR-4 2.96 µM | NCI-H226 2.18 µM | HT-29 2.2 µM | CAKI-1 2.06 µM | M14 4.91 µM | HOP-92 2.28 µM | NCI-H522 2.26 µM | A549 2.85 µM | SN12C 5.36 µM | SK-OV-3 2.45 µM | TK-10 7.41 µM | DMS-114 5.07 µM | SNB-78 3.03 µM | Malme-3M 3.63 µM

O=C(N/C(=C\c1ccccc1Cl)c1nc2ccccc2[nH]1)c1ccccc1
inactive: OVCAR-8 27.5 µM | OVCAR-4 29 µM | HT-29 24.3 µM | CAKI-1 29.5 µM | M14 19.8 µM | HOP-92 10.3 µM | RXF 393 27.4 µM | NCI-H522 22.8 µM | A549 26.7 µM | SN12C 16.7 µM | SK-OV-3 31.6 µM | TK-10 76.4 µM | DMS-114 35 µM | SNB-78 45.6 µM | Malme-3M 23.5 µM

Brc1ccc2c(c1)C1C(CO2)C(c2ccccc2)=NN1c1ccccc1 (configuration not stated)
inactive: OVCAR-8 > 100 µM | LOX IMVI > 100 µM | HT-29 54.2 µM | HOP-92 57.3 µM | RXF 393 > 100 µM | A549 > 100 µM | SK-OV-3 > 100 µM | TK-10 > 100 µM | DMS-114 > 100 µM | SNB-78 > 100 µM | Malme-3M > 100 µM

Cc1ccc(-c2cc(=O)c3cc(C)c(C)c(C(=O)O)c3o2)cc1C
inactive: OVCAR-8 > 100 µM | LOX IMVI > 100 µM | OVCAR-4 > 100 µM | NCI-H226 > 100 µM | HT-29 > 100 µM | CAKI-1 28.4 µM | M14 > 100 µM | HOP-92 > 100 µM | RXF 393 > 100 µM | NCI-H522 > 100 µM | A549 > 100 µM | SN12C > 100 µM | SK-OV-3 > 100 µM | TK-10 > 100 µM | DMS-114 > 100 µM | SNB-78 > 100 µM | Malme-3M > 100 µM

COC(=O)CCC(=O)Nc1cc(Cl)ccc1Cl
inactive: OVCAR-8 > 100 µM | LOX IMVI > 100 µM | OVCAR-4 > 100 µM | NCI-H226 > 100 µM | HT-29 > 100 µM | CAKI-1 > 100 µM | M14 > 100 µM | HOP-92 > 100 µM | RXF 393 30.2 µM | NCI-H522 > 100 µM | A549 > 100 µM | SN12C > 100 µM | SK-OV-3 > 100 µM | TK-10 > 10 µM | DMS-114 > 100 µM | SNB-78 > 100 µM | Malme-3M > 100 µM

CC1c2c(Cl)nc3ccccc3c2Oc2c1c(Cl)nc1ccccc21
inactive: OVCAR-8 85.7 µM | LOX IMVI > 100 µM | HT-29 82.8 µM | HOP-92 46.5 µM | RXF 393 41.3 µM | NCI-H522 43.8 µM | A549 68.4 µM | SK-OV-3 > 100 µM | TK-10 47.3 µM | DMS-114 66.1 µM | SNB-78 > 100 µM | Malme-3M > 100 µM

CC(C)(C)NNC(=O)/C(=C/c1ccc(Oc2ccc(Cl)c(Cl)c2)cc1)NC(=O)c1ccccc1
inactive: OVCAR-8 > 100 µM | LOX IMVI 18.9 µM | OVCAR-4 > 100 µM | NCI-H226 > 100 µM | HT-29 > 100 µM | CAKI-1 > 100 µM | M14 > 100 µM | HOP-92 > 100 µM | RXF 393 > 100 µM | NCI-H522 > 100 µM | A549 > 100 µM | SN12C > 100 µM | SK-OV-3 > 100 µM | TK-10 > 100 µM | DMS-114 18.5 µM | SNB-78 > 100 µM | Malme-3M > 100 µM

C[C@]12CC[C@H](OC3CCCCO3)CC1=CC[C@@H]1C2CC[C@]2(C)/C(=N/O)CCC12 (some centres not stated)
inactive: OVCAR-8 19.2 µM | LOX IMVI 13.8 µM | OVCAR-4 16.4 µM | HT-29 12.3 µM | CAKI-1 40.6 µM | M14 21.4 µM | HOP-92 23.9 µM | RXF 393 23.2 µM | NCI-H522 16.9 µM | A549 18.5 µM | SN12C 14.2 µM | SK-OV-3 34.9 µM | TK-10 30.5 µM | DMS-114 17.5 µM | SNB-78 20.7 µM | Malme-3M 17.9 µM

O=C(N/N=C/c1ccccc1O)N/N=C/c1ccccc1O
inactive: OVCAR-8 > 100 µM | LOX IMVI > 100 µM | OVCAR-4 > 100 µM | NCI-H226 > 100 µM | HT-29 > 100 µM | M14 > 100 µM | HOP-92 > 100 µM | RXF 393 > 100 µM | NCI-H522 > 100 µM | A549 > 100 µM | SN12C > 100 µM | SK-OV-3 > 100 µM | TK-10 > 100 µM | DMS-114 > 100 µM | SNB-78 > 100 µM | Malme-3M > 100 µM

O=C(NO)c1ccc(O)c(O)c1
inactive: OVCAR-8 79.1 µM | LOX IMVI > 10 µM | OVCAR-4 > 100 µM | NCI-H226 > 100 µM | HT-29 > 100 µM | CAKI-1 > 100 µM | M14 > 100 µM | HOP-92 > 100 µM | RXF 393 > 100 µM | NCI-H522 79.4 µM | A549 > 100 µM | SN12C > 100 µM | SK-OV-3 > 100 µM | TK-10 98.6 µM | DMS-114 55.1 µM | SNB-78 > 100 µM | Malme-3M > 100 µM

O=c1[nH]c2c(O)cccc2c2cc3c(c(O)c12)OCO3 [NARCIPRIMINE]
inactive: OVCAR-8 23.6 µM | LOX IMVI 11 µM | OVCAR-4 11.9 µM | NCI-H226 17.4 µM | HT-29 21.2 µM | CAKI-1 20.9 µM | M14 20.4 µM | HOP-92 13.4 µM | NCI-H522 19.3 µM | A549 25.5 µM | SN12C 20.7 µM | SK-OV-3 23.6 µM | TK-10 42.7 µM | DMS-114 19.1 µM | SNB-78 21.3 µM | Malme-3M 22.8 µM
